Experimental data taken from patent US8575156B2, “Cyclic inhibitors of 11β-hydroxysteroid dehydrogenase 1” (Vitae Pharmaceuticals, Inc., priority 2007, dated 2013).
Where two headings read alike, the source gives them in different places.

Experiments:
11β-HSD1 [1] = target: T1, 11β-HSD1 (Homo sapiens, UniProt P28845); settings: for IC50: read-out: IC50 Range
11β-HSD1 [2] = target: T1, 11β-HSD1; assay: biochemical; settings: for inhibition at 0.1111 µM: read-out: Average % inhibition at 111.1 nM, Biological Test Example 1, 111.1 nM compound; for IC50: IC50 Range, Biological Test Example 1, microsomes from CHO cells overexpressing human 11β-HSD1; for inhibition at 0.1 µM: read-out: Average % inhibition at 100 nM, Biological Test Example 1, 100 nM compound
[3] = Biological Test Example 1, 100 nM compound, 0.1 µM
[4] = Biological Test Example 1, microsomes from CHO cells overexpressing human 11β-HSD1
[5] = Biological Test Example 1, 111.1 nM compound, 0.1111 µM
[6] = Biological Test Example 1, 100 nM, 0.1 µM

T1 sequence (P28845 whole entry): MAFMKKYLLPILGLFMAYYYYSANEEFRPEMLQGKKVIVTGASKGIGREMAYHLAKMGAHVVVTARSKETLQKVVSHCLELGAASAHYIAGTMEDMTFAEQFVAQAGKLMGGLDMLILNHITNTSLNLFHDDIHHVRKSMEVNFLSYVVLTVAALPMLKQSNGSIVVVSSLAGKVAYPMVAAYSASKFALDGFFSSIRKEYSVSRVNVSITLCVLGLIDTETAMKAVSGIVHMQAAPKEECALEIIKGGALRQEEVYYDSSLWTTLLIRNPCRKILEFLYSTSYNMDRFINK

| Compound | Average % inhibition at 100 nM (11β-HSD1 [1]; [3]) | IC50 (11β-HSD1 [1]; [4]) | IC50 (11β-HSD1 [2]) | further results |
| --- | --- | --- | --- | --- |
| C[C@@H](c1ccc(-c2ccc(F)cc2F)cc1)N1CC[C@](CC(O)CO)(c2ccc(F)cc2)OC1=O (single isomer, unassigned) [EXAMPLE 52 Isomer 2] | 90.8% | < 100 nM | – | inhibition at 0.1111 µM (11β-HSD1 [2]): 97% |
| O=C1OC(CCO)(c2ccccc2)CCN1c1ccc(F)c(-c2ccc(F)cc2)c1 (single isomer, unassigned) [EXAMPLE 96 Isomer 1] | – | – | < 100 nM | Average % inhibition at 111.1 nM (11β-HSD1 [1]; [5]): 98.5%; inhibition at 0.1 µM (11β-HSD1 [2]): 88.3% |
| O=C1OC(CCO)(c2ccccc2)CCN1c1ccc(F)c(-c2ccc(F)cc2)c1 (single isomer, unassigned) [EXAMPLE 96 Isomer 2] | – | – | > 1000 nM | Average % inhibition at 111.1 nM (11β-HSD1 [1]; [5]): 9.7% |
| O=C1OC(CCO)(c2ccccc2F)CCN1c1cccc(-c2ccc(F)cc2)n1 (single isomer, unassigned) [EXAMPLE 104 Isomer 1] | – | – | 100 to 1000 nM | Average % inhibition at 111.1 nM (11β-HSD1 [1]; [5]): 44.3% |
| O=C1OC(CCO)(c2ccccc2F)CCN1c1cccc(-c2ccc(F)cc2)n1 (single isomer, unassigned) [EXAMPLE 104 Isomer 2] | – | – | < 100 nM | Average % inhibition at 111.1 nM (11β-HSD1 [1]; [5]): 98.1% |
| C[C@@H](c1ccccc1)N1CCC(CO)(c2ccc(F)cc2)OC1=O (single isomer, unassigned) [EXAMPLE 114 Isomer 1] | 17.4% | – | > 1000 nM | – |
| C[C@@H](c1ccccc1)N1CCC(CO)(c2ccc(F)cc2)OC1=O (single isomer, unassigned) [EXAMPLE 114 Isomer 2] | 66.6% | – | < 100 nM | – |
| C=CCC1(c2ccc(F)cc2)CCN([C@@H](C)c2ccc(Br)cn2)C(=O)O1 (single isomer, unassigned) [EXAMPLE 128 Isomer 1] | – | – | 100 to 1000 nM | Average % inhibition at 111.1 nM (11β-HSD1 [1]; [5]): 27.5%; inhibition at 0.1 µM (11β-HSD1 [2]): 26.1% |
| C=CCC1(c2ccc(F)cc2)CCN([C@@H](C)c2ccc(Br)cn2)C(=O)O1 (single isomer, unassigned) [EXAMPLE 128 Isomer 2] | – | – | > 1000 nM | Average % inhibition at 111.1 nM (11β-HSD1 [1]; [5]): 6.5% |
| C=CCC1(c2ccc(F)cc2)CCN([C@@H](CC)c2ccc(Br)cc2)C(=O)O1 (single isomer, unassigned) [EXAMPLE 130 Isomer 2] | – | < 100 nM | – | inhibition at 0.1111 µM (11β-HSD1 [2]): 87.7% |
| CC[C@@H](c1ccc(Br)cc1)N1CCC(CCO)(c2ccc(F)cc2)OC1=O (single isomer, unassigned) [EXAMPLE 143 Isomer 2] | – | < 100 nM | – | inhibition at 0.1 µM (11β-HSD1 [2]): 95.4% |
| C[C@@H](c1ccc(Br)cc1)N1CC[C@](CC(O)CO)(c2ccc(F)cc2)OC1=O (single isomer, unassigned) [EXAMPLE 144 Isomer 2] | – | < 100 nM | – | Average % inhibition at 111.1 nM (11β-HSD1 [1]; [5]): 96.6%; inhibition at 0.1 µM (11β-HSD1 [2]): 95.3% |
| C=CCC1(c2cccs2)CCN([C@@H](C)c2ccc(Br)cc2)C(=O)O1 (single isomer, unassigned) [EXAMPLE 157 Isomer 2] | 92.9% | < 100 nM | – | inhibition at 0.1111 µM (11β-HSD1 [2]): 90.7% |
| C=CCC1(c2cccs2)CCN([C@@H](C)c2ccc(-c3ccc(F)cc3)cc2)C(=O)O1 (single isomer, unassigned) [EXAMPLE 160 Isomer 2] | – | < 100 nM | – | Average % inhibition at 111.1 nM (11β-HSD1 [1]; [5]): 95.2%; inhibition at 0.1 µM (11β-HSD1 [2]): 95.9% |
| CC1CC(CCO)(c2ccc(F)cc2)OC(=O)N1[C@@H](C)c1ccc(Br)cc1 (single isomer, unassigned) [EXAMPLE 163 Isomer 2] | 96.9% | – | < 100 nM | – |
| CC1CC(CCO)(c2ccc(F)cc2)OC(=O)N1[C@@H](C)c1ccc(Br)cc1 (single isomer, unassigned) [EXAMPLE 163 Isomer 3] | 11.3% | – | > 100 nM | – |
| C[C@@H](c1ccc(-c2ccc(F)cc2F)cc1)N1CCC(CCCO)(c2cccs2)OC1=O (single isomer, unassigned) [EXAMPLE 171 Isomer 1] | 95.7% | – | < 100 nM | – |
| CC(C)C1(CCCO)CCN([C@@H](C)c2ccc(Cl)cc2)C(=O)O1 (single isomer, unassigned) [EXAMPLE 187 Isomer 1] | – | – | < 100 nM | Average % inhibition at 100 nM (11β-HSD1 [1]; 0.1 µM): 98.7% |
| O=C1OC(CCCO)(c2ccccc2)CCN1C1CC1c1ccccc1 (single isomer, unassigned) [EXAMPLE 188 Isomer 1, 6-(3-hydroxypropyl)-6-phenyl-3-(2-phenylcyclopropyl)-1,3-oxazinan-2-one] | 77.0% | – | < 100 nM | – |
| O=C1OC(CCCO)(c2ccccc2)CCN1C1CC1c1ccccc1 (single isomer, unassigned) [EXAMPLE 188 Isomer 2, 6-(3-hydroxypropyl)-6-phenyl-3-(2-phenylcyclopropyl)-1,3-oxazinan-2-one] | 31.7% | – | > 100 nM | – |
| COc1ccc([C@H](C)N2CCC(CCCO)(c3ccc(F)cc3)OC2=O)cc1 (single isomer, unassigned) [EXAMPLE 201 Isomer 1] | 93.2% | – | < 100 nM | – |

| Compound | Average % inhibition at 100 nM (11β-HSD1 [1]; [3]) | IC50 (11β-HSD1 [1]; [4]) | IC50 (11β-HSD1 [2]) | further results |
| --- | --- | --- | --- | --- |
| COc1ccc([C@H](C)N2CCC(CCCO)(c3ccc(F)cc3)OC2=O)cc1 (single isomer, unassigned) [EXAMPLE 201 Isomer 2] | 27.0% | – | > 100 nM | – |
| CC(C)(C)OC(=O)N1CCC(N2CCC(CCCO)(c3ccccc3)OC2=O)C1 (single isomer, unassigned) [EXAMPLE 208 Isomer 1] | 76.6% | – | < 100 nM | – |
| CC(C)(C)OC(=O)N1CCC(N2CCC(CCCO)(c3ccccc3)OC2=O)C1 (single isomer, unassigned) [EXAMPLE 208 Isomer 2] | 38.5% | – | > 100 nM | – |
| CC(C)(C)OC(=O)N1CCC(N2CCC(CCCO)(c3ccccc3)OC2=O)C1 (single isomer, unassigned) [EXAMPLE 208 Isomer 3] | 64.6% | – | < 100 nM | – |
| CC(C)(C)OC(=O)N1CCC(N2CCC(CCCO)(c3ccccc3)OC2=O)C1 (single isomer, unassigned) [EXAMPLE 208 Isomer 4] | 29.3% | – | < 100 nM | – |
| CC(C)C1(CC(O)CO)CCN([C@@H](C)c2ccc(-c3ccc(F)cc3F)cc2)C(=O)O1 (single isomer, unassigned) [EXAMPLE 223 Isomer 1] | 94.2% | – | < 100 nM | – |
| CC(C)C1(CC(O)CO)CCN([C@@H](C)c2ccc(-c3ccc(F)cc3F)cc2)C(=O)O1 (single isomer, unassigned) [EXAMPLE 223 Isomer 2] | 97.1% | – | < 100 nM | – |
| C=CCCC1(c2ccc(F)cc2)CCN([C@@H](C)c2ccc(OC(F)F)cc2)C(=O)O1 (single isomer, unassigned) [EXAMPLE 323 Isomer 2] | – | < 100 nM | – | Average % inhibition at 100 nM (11β-HSD1 [1]; 0.1 µM): 100.9% |
| C[C@@H](c1ccc(Br)cc1)N1CCC(CCCO)(C(C)(C)C)OC1=O (single isomer, unassigned) [EXAMPLE 335 Isomer 2] | – | < 100 nM | – | Average % inhibition at 100 nM (11β-HSD1 [1]; [6]): 96.7% |
| C[C@@H](c1ccc(-c2ccc(F)cc2F)cc1)N1CCC(CCO)(C(C)(C)C)OC1=O (single isomer, unassigned) [EXAMPLE 336 Isomer 2] | – | < 100 nM | – | Average % inhibition at 100 nM (11β-HSD1 [1]; [6]): 94.6% |
| C[C@@H](c1ccc(Br)cc1)N1CCC(CCO)(c2ccc(F)cc2F)OC1=O (single isomer, unassigned) [EXAMPLE 365 Isomer 2] | – | < 100 nM | – | Average % inhibition at 100 nM (11β-HSD1 [1]; [6]): 61.1% |
| CC(O)C[C@]1(c2ccc(F)cc2)CCN([C@@H](C)c2ccc(Br)cc2)C(=O)O1 (single isomer, unassigned) [EXAMPLE 371 Isomer 2] | – | < 100 nM | – | Average % inhibition at 100 nM (11β-HSD1 [1]; [6]): 97.4% |
| CC(O)CC[C@]1(c2ccc(F)cc2)CCN([C@@H](C)c2ccc(Cl)cc2)C(=O)O1 (single isomer, unassigned) [EXAMPLE 383 Isomer 2] | – | < 100 nM | – | Average % inhibition at 100 nM (11β-HSD1 [1]; [6]): 95.3% |
| CC(O)C[C@]1(c2ccc(F)cc2)CCN([C@@H](C)c2ccc(C(F)(F)F)cc2)C(=O)O1 (single isomer, unassigned) [EXAMPLE 388 Isomer 2] | – | < 100 nM | – | Average % inhibition at 100 nM (11β-HSD1 [1]; [6]): 94.7% |
| CC(O)CC[C@]1(c2ccc(F)cc2)CCN([C@@H](C)c2ccc(F)cc2)C(=O)O1 (single isomer, unassigned) [EXAMPLE 411 Isomer 2] | – | < 100 nM | – | Average % inhibition at 100 nM (11β-HSD1 [1]; [6]): 93.1% |
| CC(C[C@]1(c2ccc(F)cc2)CCN([C@@H](C)c2ccc(Br)cc2)C(=O)O1)C(N)=O (single isomer, unassigned) [EXAMPLE 523 Isomer 2] | – | < 100 nM | – | Average % inhibition at 100 nM (11β-HSD1 [1]; [6]): 85.4% |
| CC(CO)C[C@]1(c2ccc(F)cc2)CCN([C@@H](C)c2ccc(Br)cc2)C(=O)O1 (single isomer, unassigned) [EXAMPLE 577 Isomer 2] | – | < 100 nM | – | Average % inhibition at 100 nM (11β-HSD1 [1]; [6]): 94.7% |
| (R)-3-((S)-1-(2′,4′-difluorobiphenyl-4-yl)propyl)-6-(4-fluorophenyl)-6-(2-hydroxyethyl)-1,3-oxazinan-2-one [EXAMPLE 175 Isomer 2] | – | – | – | Average % inhibition at 111.1 nM (11β-HSD1 [1]): 25.8%; IC50 (11β-HSD1 [1]): 100 to 1000 nM |
| (R)-6-(3-hydroxypropyl)-3-((S)-1-(4-methoxyphenyl)ethyl)-6-phenyl-1,3-oxazinan-2-one [EXAMPLE 282 Isomer 1] | – | – | – | Average % inhibition at 100 nM (11β-HSD1 [1]): 94.0%; IC50 (11β-HSD1 [1]): < 100 nM |
| (S)-3-((S)-1-(2′,4′-difluorobiphenyl-4-yl)propyl)-6-(4-fluorophenyl)-6-(2-hydroxyethyl)-1,3-oxazinan-2-one [EXAMPLE 175 Isomer 1] | – | – | – | Average % inhibition at 111.1 nM (11β-HSD1 [1]): 93.7%; IC50 (11β-HSD1 [1]): < 100 nM |
| (S)-6-(3-hydroxypropyl)-3-((S)-1-(4-methoxyphenyl)ethyl)-6-phenyl-1,3-oxazinan-2-one [EXAMPLE 282 Isomer 2] | – | – | – | Average % inhibition at 100 nM (11β-HSD1 [1]): 77.8%; IC50 (11β-HSD1 [1]): < 100 nM |
